# Laboratory results published in paper PMC11418636, “Evaluating the potential of non‐immunosuppressive cyclosporin analogs for targeting Toxoplasma gondii cyclophilin: Insights from structural studies” (Protein Science : A Publication of the Protein Society, 2024).
# Where two headings read alike, the source gives them in different places.
# Legend:
# [1] = molecular target: T1, TgCyp23 (Toxoplasma gondii, UniProt B9PS61); experiment: Isothermal titration calorimetry (ITC) binding to TgCyp23; conditions: 20°C, 50 mM HEPES pH 8.0, 100 mM NaCl, error SEM of triplicate
# T1 sequence (B9PS61 entry or part of it): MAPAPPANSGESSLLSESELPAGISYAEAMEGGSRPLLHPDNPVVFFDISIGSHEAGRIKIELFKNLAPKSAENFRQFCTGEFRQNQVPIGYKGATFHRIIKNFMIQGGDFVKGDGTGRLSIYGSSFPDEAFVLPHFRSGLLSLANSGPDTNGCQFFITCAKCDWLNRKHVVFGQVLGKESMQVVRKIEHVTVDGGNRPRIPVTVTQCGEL
# Experimental: Isothermal titration calorimetry (ITC) experiments were performed on a PEAQ‐ITC instrument from MicroCal (Northampton, MA) as previously described (Bombardi et al., [2022]; Conter et al., [2021]; Favretto et al., [2023]). Stock solutions of dhCsA, NIM811, and Alisporivir were prepared in 100% EtOH and successively diluted in a buffer of 50 mM HEPES, pH 8.0, 100 mM NaCl at a final concentration of 8 μM. […] The analog solutions were titrated with 2 μL (total 19 injections) of a 66 μM TgCyp23 solution supplemented with 0.1% EtOH. All the experiments were executed at an operating temperature of 20°C and a time gap of 150 s between each injection. Protein and ligand samples were filtered and degassed thoroughly before the experiments. Reference experiments were performed in the absence of a ligand or a protein, and the heat of dilution was subtracted from each experiment. Each titration set was repeated as a triplicate and the error was estimated as the SEM. The data were analyzed using the software MicroCal Origin, and the apparent dissociation constants Kd, the enthalpy changes (ΔH), and entropy changes (ΔS) were obtained.
# [2] = molecular target: T1, TgCyp23; experiment: Stopped-flow rapid kinetics of binding to TgCyp23; conditions: association rate constant, 20°C, pH 7.4, 0.5 μM TgCyp23, ligands 1 to 7 μM
# Experimental: Stopped‐flow experiments were performed on an SX‐18 stopped‐flow apparatus (Applied Photophysics, Leatherhead, UK) at 20°C in 50 mM Hepes, 150 mM NaCl, 1 mM DTT (pH 7.4). Fluorescence emission was measured using a 320 nm cutoff filter (λex = 280 nm). The concentration of TgCyp23 after mixing was 0.5 μM, and the concentration of ligands after mixing ranged from 1 to 7 μM. For each trace, data from 4 to 6 injections were averaged and fitted with a single exponential function, excluding data points in the dead‐time of the stopped flow (<2 ms).
# [3] = molecular target: T1, TgCyp23; experiment: Circular dichroism (CD) thermal denaturation of TgCyp23 with ligands; format: binding; conditions: melting temperature of TgCyp23 with saturating ligand, 224 nm; TgCyp23 alone 52 ± 1
# Experimental: Circular dichroism (CD) assays were conducted on a Jasco J‐1500 spectropolarimeter equipped with a Peltier temperature controller following the protocol described in (Bombardi et al., [2020]; Favretto et al., [2023]; Trande et al., [2019]; ). Briefly, denaturation profiles in the presence of saturating concentrations of ligands were obtained by monitoring the loss of secondary structure of TgCyp23 at 224 nm in the temperature range of 15–100°C, with a scan rate of 1.5°C/min. The protein concentration was 0.2 mg/mL, and the buffer used was 50 mM HEPES at pH 8.0 with 100 mM NaCl.
# [4] = molecular target: T1, TgCyp23; experiment: Differential scanning calorimetry (DSC) of TgCyp23 with ligands; format: binding; conditions: melting temperature of 70 μM TgCyp23 with ligand; TgCyp23 alone 49 ± 1
# Experimental: Differential scanning calorimetry (DSC) experiments were conducted using a nano‐DSC (TA instrument) with a cell volume of 300 μL (Favretto et al., [2023]). […] Data were fitted according to a two‐state model using NanoAnalyze software (TA instrument).
# [5] = molecular target: T1, TgCyp23; experiment: PPIase inhibition, protease-coupled assay with AAPF peptide; format: biochemical; conditions: PPIase activity, TgCyp23 7 nM, ligand 0 to 30 nM, 10 min on ice; error SEM of triplicate
# Experimental: PPIase activity was determined using the synthetic peptide N‐succinyl‐Ala‐Ala‐Pro‐Phe‐p‐nitroanilide (AAPF) based on the protease‐coupled assay as described in (Favretto et al., [2023]; Kofron et al., [1991]). In inhibition assays, TgCyp23 (7 nM) was incubated for 10 min on ice in the presence of increasing concentrations of the three analogs, ranging from 0 to 30 nM, before the addition of the AAPF peptide. In all experiments, the slope of the catalyzed reaction was corrected for spontaneous thermal cis–trans isomerization in the presence of chymotrypsin alone.
# The residual enzymatic activity was estimated from the initial velocities of each catalyzed reaction and expressed as a percentage (%) of the original enzymatic activity (Astegno et al., [2017]). Residual enzymatic activities were plotted against ligand concentrations, and the obtained curve was analyzed to determine the IC50 value for each tested ligand. The experiments were repeated in triplicate, and the error was estimated as the standard error of the mean (SEM).
# [6] = molecular target: CypA; conditions: Ptak et al., 2008, read-out: Ki, inhibition of CypA PPIase activity, cited from earlier work
Structure (SMILES),Kd [1],kon [2],Tm (CD) [3],Tm (DSC) [4],IC50 [5],"Ki ([6]; ref Coelmont et al., 2010, de Wilde et al., 2013, Gallay & Lin, 2013)","Ki ([6]; ref Schiene-Fischer et al., 2022)"
"CCCC[C@@H](C)[C@@H](O)[C@H]1C(=O)N[C@@H](CC)C(=O)N(C)CC(=O)N(C)[C@@H](CC(C)C)C(=O)N[C@@H](C(C)C)C(=O)N(C)[C@@H](CC(C)C)C(=O)N[C@@H](C)C(=O)N[C@H](C)C(=O)N(C)[C@@H](CC(C)C)C(=O)N(C)[C@@H](CC(C)C)C(=O)N(C)[C@@H](C(C)C)C(=O)N1C [dhCsA, Dihydrocyclosporin A]",200 ± 92 nM,1.85e+06 ± 110000 M⁻¹ s⁻¹,57 ± 1 °C,53 ± 1 °C,1.2 ± 0.2 nM,,
"C/C=C/C[C@@H](C)[C@@H](O)[C@H]1C(=O)N[C@@H](CC)C(=O)N(C)[C@H](C)C(=O)N(CC)[C@@H](C(C)C)C(=O)N[C@@H](C(C)C)C(=O)N(C)[C@@H](CC(C)C)C(=O)N[C@@H](C)C(=O)N[C@H](C)C(=O)N(C)[C@@H](CC(C)C)C(=O)N(C)[C@@H](CC(C)C)C(=O)N(C)[C@@H](C(C)C)C(=O)N1C [Alisporivir, MeAla-3-EtVal-4-Cyclosporin]",15 ± 3 nM,3.97e+06 ± 210000 M⁻¹ s⁻¹,59 ± 1 °C,55 ± 1 °C,0.77 ± 0.01 nM,0.34 nM,
"C/C=C/C[C@@H](C)[C@@H](O)[C@H]1C(=O)N[C@@H](CC)C(=O)N(C)CC(=O)N(C)[C@@H]([C@@H](C)CC)C(=O)N[C@@H](C(C)C)C(=O)N(C)[C@@H](CC(C)C)C(=O)N[C@@H](C)C(=O)N[C@H](C)C(=O)N(C)[C@@H](CC(C)C)C(=O)N(C)[C@@H](CC(C)C)C(=O)N(C)[C@@H](C(C)C)C(=O)N1C [NIM811, MeIle-4-Cyclosporin]",43 ± 10 nM,2.77e+06 ± 150000 M⁻¹ s⁻¹,58 ± 1 °C,56 ± 1 °C,0.85 ± 0.03 nM,,2.1 nM
